Test results as given in patent US10039761B2, “Co-crystals and pharmaceutical compositions comprising the same” (Vertex Pharmaceuticals Incorporated, priority 2013, dated 2018).

What was measured:
[1] = test system: FaDu cells; assay: Clonogenic survival of irradiated cancer cell lines; type: cell-based
Text: (§1) The clonogenic cell survival assay measures the ability of a cell to proliferate indefinitely, thereby retaining its self-renewing ability to form a colony (i.e., clone). This assay has been a mainstay in radiation oncology for decades and was used to determine the effect of Compound (1) on the clonogenicity of a panel of cell lines across multiple tumor types following radiation. […] A DEF greater than 1.5 is generally considered to be clinically meaningful; therefore, by these standards, Compound (1) would be characterized as a strong radio-enhancing agent.

[2] = test system: Miapaca2 cells; assay: as above; type: cell-based; conditions: with radiation; surviving fraction 0.1
Text: as §1

[3] = test system: OE-19 GEJ cell line xenograft; assay: OE-19 GEJ cell line xenograft efficacy with whole body IR; type: in vivo
Procedure: The in vivo efficacies of Compounds (1) and (2) in combination with whole body IR were examined in the OD26749 primary NSCLC (non-small cell lung cancer) and the OE-19 GEJ cell line xenograft models. In these studies, Compounds (1) and (2) were formulated with 16% captisol/1% PVP/1% HPMC E5 pH2.
The OE-19 cell line xenograft model was used to evaluate the efficacy of Compounds (1) and (2) alone and in combination with IR. Two cycles of treatment were administered (Day 0 and Day 7) as performed in the OD26749 model above.
In Tables 14 and 15, for example, PO bid (0, 4 h) indicates Compound (2) is administered twice (bid) at time point 0 and then 4 hours after; IR (0.25 h) qdx3 indicates radiation is administered 15 minutes (0.25 h) after the administration of Compound (2) (0 h), and once a day for 3 days (qdx3); q7dx2 indicates once a week for two weeks; qod indicates every other day twice (e.g., Day 1 and Day 3); and paclitaxel q7dx3 (−0.25 h), carboplatin q7dx3 (−0.25 h) indicates administration of paclitaxel and carboplatin 15 minutes prior to the administration of Compound (2), followed by additional administration of Compound (2) after 4 hours after the first administration of Compound (2).

[4] = test system: OD26749 primary NSCLC xenograft; assay: OD26749 primary NSCLC xenograft efficacy with whole body IR; type: in vivo, nude mice; conditions: for % T/C (Day 29): 2 Gy IR ([…]) q7dx2
[5] = test system: panel of 60 cancer cell lines; assay: Double combinations in 60 cancer cell line panel (ATPLite, Bliss); type: cell-based; conditions: 144 hours
Procedure: The cell-based experiments and assays were performed with either molecule but not always with both. Compounds (1) and (2) were generally very similar in those assays and experiments. Analysis of the combination experiments was performed using two methods: the Bliss Additivity model and the Mixtures Blend method to determine the degree of synergy, additivity, or antagonism. In the Bliss method, a matrix of Bliss scores was generated for each cell line and treatment, and a sum of the Bliss values over the range of combination concentrations tested was calculated. […] Larger average Bliss values indicate greater confidence in reporting synergy, and smaller scores indicate greater confidence in reporting antagonism. In the Mixtures Blend method combinants were added in a range of optimal ratios using design of experiment (DOE) software (DX-8 from STAT-EASE); the cells were irradiated with 2 Gy as required. Synergy was determined using statistical analysis of the data (ANOVA) to indicate linear (additivity) or statistically significant (p<0.1) non-linear (antagonism or synergy) mixes of the combinants. Compound (2) was tested against a panel of 60 cancer cell lines (see Table 16) alone and in combination with a panel of cytotoxic and non-cytotoxic SOC agents. The 60 cancer cell lines represent lines derived from breast cancer, prostate cancer, lung cancer, acute myeloid leukemia (AML), myeloma and other cancers. Cells were removed from liquid nitrogen storage, thawed and expanded in appropriate growth media. Once expanded, cells were seeded in 384-well tissue culture treated plates at 500 cells per well. […] At the end of either 0 hours or 144 hours, cell status was analyzed using ATPLite (Perkin Elmer) to assess the biological response of cells to drug combinations.

[6] = Blood exposure in ST-02-0004 study; type: in vivo
Procedure: The anti-tumor activity of Compound (2) in combination with focused-beam IR and the standard of care agents, paclitaxel and carboplatin, was also evaluated in the ST 02 0004 model. Treatment with paclitaxel, carboplatin, and IR was administered once per week for three weeks alone or in combination with Compound (2). […] Further, the 50 and 25 mg/kg Compound (2), paclitaxel/carboplatin, IR combination groups were statistically different (P<0.05) from the paclitaxel/carboplatin, paclitaxel/carboplatin/50 mg/kg Compound (2), and paclitaxel/carboplatin/IR groups. Compound (2) blood exposures were 9.3 and 27 μg*h/mL for the 25 and 50 mg/kg Compound (2) bid groups, respectively.

blood exposure ([6]; 25 mg/kg Compound (2) bid group) | blood exposure ([6]; 50 mg/kg Compound (2) bid group) | Compound | colony formation ([1]; Compound (1) and radiation, as little as 0.5 Gy) | dose enhancement factor (DEF) ([1]; with radiation, surviving fraction 0.1) | dose enhancement factor (DEF) [2] | tumor growth ([3]; Compound (1) in combination with 2 Gy whole body IR) | % T/C (Day 18) ([3]; PO 100 mg/kg bid (0, 4 h) qd7x2, 2 Gy IR qd7x2 ([…]) whole body) | % T/C (Day 18) ([3]; PO 100 mg/kg bid (0, 4 h) qd7x 2, no IR) | % T/C (Day 29) ([4]; PO 25 mg/kg bid (0, 4 h)) | % T/C (Day 20) ([4]; PO 100 mg/kg tid (0, 3, 7 h) qdx1, 2 Gy qdx1 (3.25 h) whole body IR, 100 mg/kg) | % T/C (Day 20) ([4]; PO 100 mg/kg tid (0, 3, 7 h) qdx1, no IR) | % T/C (Day 29) ([4]; PO 200 mg/kg qd) | Bliss analysis, combination effect ([5]; in combination with bleomycin) | Bliss analysis, combination effect ([5]; in combination with doxorubicin) | Bliss analysis, combination effect ([5]; in combination with etoposide)
– | – | CNC(=O)c1ccnc2c([C@H](C)CNc3cc(-c4cnc(C)nc4)ncn3)cccc12 [Compound (1), (S)-N-methyl-8-(1-((2′-methyl-[4,5′-bipyrimidin]-6-yl)amino)propan-2-yl)quinoline-4-carboxamide] | completely eliminated colony formation | > 8 | 2.5 | significantly inhibited tumor growth | 24.0% | 79.0% | 25.6% | 26% | 101% | 6.5% | – | – | –
9300 ng·h/mL | 27000 ng·h/mL | [2H]c1nc(C)nc([2H])c1-c1cc(NC[C@@H](C)c2cccc3c(C(=O)NC)ccnc23)ncn1 [Compound (2), (S)-N-methyl-8-(1-((2′-methyl-4′,6′-dideutero-[4,5′-bipyrimidin]-6-yl)amino)propan-2-yl)quinoline-4-carboxamide] | – | – | – | – | – | – | – | – | – | – | strong synergy (greater than 10 indicates strong synergy) | strong synergy (greater than 10 indicates strong synergy) | strong synergy (greater than 10 indicates strong synergy)
